Reference: patent US5760054A, “Alpha IC adrenergic receptor antagonists” (priority 1996, dated 1998)
Changes are numbered by the printed parent chain. Like-named read-outs stand apart in the source and are kept apart here.

Columns and labels:
[1] = molecular target: human/rat alpha1B adrenergic receptor; test: Selective binding assay, competition with [125I]-HEAT on COS-7 membranes, α1B; design: species or system human/rat hybrid
Description: The partial human alpha1B adrenergic receptor cDNA was joined to the 3' end of the rat alpha1B adrenergic receptor cDNA at their common BssHII restriction endonuclease site. ID:25:
The complete coding region for the human/rat alpha1B adrenergic receptor was subcloned into the eukaryotic expression vector pcDNAI-neo (Invitrogen). The resulting plasmid was transfected into COS-7 cells by electroporation. […] Binding reactions (total volume=200 ul) contained 50 mM Tris-HCl pH. […] Reactions are incubated at room temperature for one hour with shaking. Reactions were filtered onto Whatman GF/C glass fiber filters with a Brandel cell harvester. Filters were washed three times with ice cold buffer and bound radioactivity was determined.
(§1) These competition binding reactions (total volume=200 ul) contain 50 mM Tris-HCl pH. […] Reactions are incubated at room temperature for one hour with shaking. Reactions were filtered onto Whatman GF/C glass fiber filters with a Brandel cell harvester. Filters were washed three times with ice cold buffer and bound radioactivity was determined. Binding data were analyzed and IC50s determined by an iterative curve fitting program.

[2] = molecular target: human alpha1A adrenergic receptor; test: Selective binding assay, competition with [125I]-HEAT on COS-7 membranes, α1A; conditions: Table I, 100 pM [125I]-HEAT
Description: The resulting plasmid was transfected into COS-7 cells by electroporation.
(§2) Binding reactions (total volume=200 ul) contained 50 mM Tris-HCl pH. […] Reactions are incubated at room temperature for one hour with shaking. Reactions were filtered onto Whatman GF/C glass fiber filters with a Brandel cell harvester. Filters were washed three times with ice cold buffer and bound radioactivity was determined.
as §1

[3] = molecular target: T1, human alpha1C adrenergic receptor (Homo sapiens, UniProt P35348, C347R); test: Selective binding assay, competition with [125I]-HEAT on COS-7 membranes, α1C; conditions: Table I, 100 pM [125I]-HEAT
T1 construct: expressed in transfected cells; host or cells: COS-7 cells (pcDNAI-neo, electroporation), membranes
T1 sequence (P35348 1-466 C347R): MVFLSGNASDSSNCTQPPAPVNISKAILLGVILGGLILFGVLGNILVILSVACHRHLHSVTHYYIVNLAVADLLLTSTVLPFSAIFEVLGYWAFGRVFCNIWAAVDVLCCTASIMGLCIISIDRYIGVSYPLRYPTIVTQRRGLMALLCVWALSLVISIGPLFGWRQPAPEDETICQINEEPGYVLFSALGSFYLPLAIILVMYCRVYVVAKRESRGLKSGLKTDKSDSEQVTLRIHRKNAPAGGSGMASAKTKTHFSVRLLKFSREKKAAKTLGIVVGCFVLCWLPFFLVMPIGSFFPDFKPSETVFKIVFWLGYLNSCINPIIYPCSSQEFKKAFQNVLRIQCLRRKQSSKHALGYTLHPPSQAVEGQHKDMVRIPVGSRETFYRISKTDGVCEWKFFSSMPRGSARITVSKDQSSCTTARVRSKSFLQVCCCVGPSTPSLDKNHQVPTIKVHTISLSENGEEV
Description: as §2, with “The resulting plasmid was transfected into COS-7 cells by electroporation. […] Binding” for “Binding”, “were” for “are”
as §1, §1

[4] = molecular target: T2, human alpha-1c adrenergic receptor, allele 1 (LRR) (Homo sapiens, UniProt P35348, C347R); test: biochemical
T2 sequence (P35348 1-466 C347R): T1 sequence (P35348 1-466 C347R)
Description: (§3) To investigate the pharmacological profiles of the two allelic forms of the human alpha-1c adrenergic receptor we ligated the genomic exon 2 fragment of allele 2 to a cDNA clone of allele 1 at a common PvuII restriction site. The two allelic forms were transiently expressed in COS-7 cells using pcDNAI/NEO (Invitrogen) expression vector.

[5] = molecular target: T3, human alpha-1c adrenergic receptor, allele 2 (LCR) (Homo sapiens, UniProt P35348); test: biochemical
T3 sequence (P35348 1-466): T1 sequence (P35348 1-466 C347R) with R347C
Description: as §3

[6] = Table I, 100 pM [125I]-HEAT, COS-7 membranes

SMILES | IC50 [1, 6] [nM] | IC50 [2] [nM] | IC50 [3] [nM] | other results
Cc1ccc(N(CC2=NCCN2)c2cccc(O)c2)cc1 [phentolamine] | 650 | – | – | –
CC(COc1ccccc1)N(CCCl)Cc1ccccc1 (centres unmarked) [phenoxybenzamine] | 4.3 | 6.1 | – | –
COc1cc2nc(N3CCN(C(=O)c4ccco4)CC3)nc(N)c2cc1OC [prazosin] | – | – | – | IC50 [1]: 2.4 nM
COC(=O)C1=C(C)NC(C)=C(C(=O)OCCCN2CCC(c3ccccc3)(c3ccccc3)CC2)[C@H]1c1cccc([N+](=O)[O-])c1 [S(+) niguldipine] | – | – | – | IC50 [1]: 670 nM
COc1ccccc1N1CCN(CCCNc2c(C)c(=O)n(C)c(=O)n2C)CC1 [5-methyl urapidil] | 270 | 42 | 3.5 | IC50 [4]: 3.1 nM; IC50 [5]: 4.3 nM

Second part, led by results:

IC50 [1, 6] [nM] | IC50 [2] [nM] | IC50 [3] [nM] | SMILES | other results
68 | 2.5 | 1.5 | COc1cccc(OC)c1OCCNCC1CSc2ccccc2O1 (centres unmarked) [benoxathian] | –
5 | – | – | COc1cc2nc(N3CCN(C(=O)C4CCCO4)CC3)nc(N)c2cc1OC (centres unmarked) [terazosin] | –
2 | – | – | COc1cc2nc(N3CCN(C(=O)C4COc5ccccc5O4)CC3)nc(N)c2cc1OC (centres unmarked) [doxazosin] | –
16 | 1 | 1 | COc1cccc(OC)c1OCCNCC1COc2ccccc2O1 (centres unmarked) [WB4101] | IC50 [4]: 0.9 nM; IC50 ([5]; read-out: IC50 LCR, Table II, allele 2 (Cys at amino acid 347), COS-7, 125I-HEAT): 1 nM
